Assay results as given in ChEMBL document CHEMBL1140514, “Some new acyclic nucleotide analogues as antiviral prodrugs: synthesis and bioactivities in vitro” (Bioorg Med Chem Lett, 2007).

How the values were obtained:
HepG2 = assay: Cytotoxicity against human HepG2 cells after 9 days by MTT assay; type: functional, cell-based; settings: HepG2, 216 h
Hepatitis B virus = assay: Antiviral activity against Hepatitis B virus infected human HepG2 cells after 9 days by MTT assay; type: functional, organism-based; settings: HepG2, 216 h
[1] = tested on: Human immunodeficiency virus 1; assay: Antiviral activity against HIV1 3B in MT4 cells after 4 days by MTT assay; type: functional
[2] = Therapeutic index, Ratio of TC50 for human HepG2 cells to IC50 for HBV-infected human HepG2 cells; type: cell-based; settings: HepG2 cells (TC50) and HBV-infected HepG2 cells (IC50)
[3] = Cytotoxicity against MT4 cells at 10 ug/ml after 4 days by MTT assay; type: cell-based; settings: human, read-out: Inhibition

SMILES	IC50 (HepG2) [µM]	IC50 (Hepatitis B virus) [µM]	TC50 [1]	selectivity ratio [2]	cytotoxicity at 96 h, 10 ug/ml [3] [%]
Nc1ncnc2c1ncn2CCOCP(=O)(OCOC(=O)OC1CCCC1)OCOC(=O)OC1CCCC1.O=C(O)/C=C/C(=O)O	3.51	2.46	22.1 µM		
C[C@H](Cn1cnc2c(N)ncnc21)OCP(=O)(OCOC(=O)OC1CCCCC1)OCOC(=O)OC1CCCCC1.O=C(O)/C=C/C(=O)O	17.5	5.94	92.8 µM	15.6	
Nc1ncnc2c1ncn2CCOCP(=O)(O)OCOC(=O)OCc1ccccc1.O=C(O)/C=C/C(=O)O	> 30	43	0.59 10^3uM	13.7	9
C=CCOC(=O)OCOP(=O)(O)COCCn1cnc2c(N)ncnc21.O=C(O)/C=C/C(=O)O	23.7	10.6	0.67 10^3uM		
C=CCOC(=O)OCOP(=O)(COCCn1cnc2c(N)ncnc21)OCOC(=O)OCC=C.O=C(O)/C=C/C(=O)O	> 30	8.2	24.6 µM		22.8
Nc1ncnc2c1ncn2CCOCP(=O)(OCOC(=O)OCc1ccccc1)OCOC(=O)OCc1ccccc1.O=C(O)/C=C/C(=O)O	> 30	2.15	26.5 µM	12.3	24.9
Nc1ncnc2c1ncn2CCOCP(=O)(OCOC(=O)OC1CCCCC1)OCOC(=O)OC1CCCCC1.O=C(O)/C=C/C(=O)O	23.1	5.33	63.2 µM	11.9	
C=CCOC(=O)OCOP(=O)(CO[C@H](C)Cn1cnc2c(N)ncnc21)OCOC(=O)OCC=C.O=C(O)/C=C/C(=O)O	1.61	7.98	30.9 µM		
C[C@H](Cn1cnc2c(N)ncnc21)OCP(=O)(OCOC(=O)OCc1ccccc1)OCOC(=O)OCc1ccccc1.O=C(O)/C=C/C(=O)O	> 30	5.5	70.1 µM	12.7	28.1
C[C@H](Cn1cnc2c(N)ncnc21)OCP(=O)(OCOC(=O)OC1CCCC1)OCOC(=O)OC1CCCC1.O=C(O)/C=C/C(=O)O	> 30	7.2	80.2 µM		25.5
Nc1ncnc2c1ncn2CCOCP(=O)(O)O [ADEFOVIR]		42.1			
Nc1nc(=O)n([C@@H]2CS[C@H](CO)O2)cc1F [EMTRICITABINE]	27.7				
C[C@H](Cn1cnc2c(N)ncnc21)OCP(=O)(O)O [TENOFOVIR ANHYDROUS]		12.3	0.39 10^3uM	31.4	
CC(C)OC(=O)OCOP(=O)(CO[C@H](C)Cn1cnc2c(N)ncnc21)OCOC(=O)OC(C)C.O=C(O)/C=C/C(=O)O [TENOFOVIR DISOPROXIL FUMARATE]	2.31	5.1	55.2 µM	10.8	
